The supplement of paper PMC8960247
± gives the standard error.

Columns and labels:
621-102 (TSC2-deficient) [1] = test: relative viability vs DMSO (fraction); higher = less cytotoxic; conditions: serum: 0.1% FBS, 72 h
UMB1949 (TSC2-deficient) = test: as above; conditions: serum: 0.1% FBS, 72 h;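 also: renal angiomyolipoma cell lines screened in 384-well plates, viability normalized per plate to DMSO-treated cells, each plate carrying 50 nM rapamycin and 1 µM staurosporine controls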
621-102 (TSC2-deficient) [2] = test: relative viability vs DMSO; higher = less cytotoxic; conditions: serum: 10% FBS, 72 h
621-103 (TSC2-rescued) = test: as above; conditions: serum: 10% FBS, 72 h

Compound	relative viability (621-102 (TSC2-deficient) [1]; 0.0128 nM)	relative viability (621-102 (TSC2-deficient) [1]; 0.064 nM)	relative viability (621-102 (TSC2-deficient) [1]; 0.32 nM)	relative viability (621-102 (TSC2-deficient) [1]; 1.6 nM)	relative viability (621-102 (TSC2-deficient) [1]; 8 nM)	relative viability (621-102 (TSC2-deficient) [1]; 40 nM)	relative viability (621-102 (TSC2-deficient) [1]; 200 nM)	relative viability (621-102 (TSC2-deficient) [1]; 1000 nM)	relative viability (621-102 (TSC2-deficient) [1]; 5000 nM)	relative viability (UMB1949 (TSC2-deficient); 0.0128 nM)	relative viability (UMB1949 (TSC2-deficient); 0.064 nM)	relative viability (UMB1949 (TSC2-deficient); 0.32 nM)	relative viability (UMB1949 (TSC2-deficient); 1.6 nM)	relative viability (UMB1949 (TSC2-deficient); 8 nM)	relative viability (UMB1949 (TSC2-deficient); 40 nM)	relative viability (UMB1949 (TSC2-deficient); 200 nM)	relative viability (UMB1949 (TSC2-deficient); 1000 nM)	relative viability (UMB1949 (TSC2-deficient); 5000 nM)	relative viability (621-102 (TSC2-deficient) [2]; 0.0001 µM) [%]	relative viability (621-102 (TSC2-deficient) [2]; 0.001 µM) [%]	relative viability (621-102 (TSC2-deficient) [2]; 0.01 µM) [%]	relative viability (621-102 (TSC2-deficient) [2]; 0.1 µM) [%]	relative viability (621-102 (TSC2-deficient) [2]; 1 µM) [%]	relative viability (621-102 (TSC2-deficient) [2]; 10 µM) [%]	relative viability (621-103 (TSC2-rescued); 0.0001 µM) [%]	relative viability (621-103 (TSC2-rescued); 0.001 µM) [%]	relative viability (621-103 (TSC2-rescued); 0.01 µM) [%]	relative viability (621-103 (TSC2-rescued); 0.1 µM) [%]	relative viability (621-103 (TSC2-rescued); 1 µM) [%]	relative viability (621-103 (TSC2-rescued); 10 µM) [%]
COc1cc(Nc2ncc3c(n2)-c2ccc(Cl)cc2C(c2c(F)cccc2OC)=NC3)ccc1C(=O)O [MLN8237]	0.864	0.862	0.767	0.248	0.118	0.0792	0.0576	0.0449	0.0354	0.99	0.824	0.525	0.215	0.146	0.0466	0.0216	0.0132	0.0159	102 ± 2.6	87.64 ± 0.83	95.68 ± 0.57	87.6 ± 0.9	74.6 ± 5.1	69.9 ± 2.5	103 ± 2.5	103.9 ± 0.17	98.7 ± 2.3	93.8 ± 1	91.1 ± 1.4	74.62 ± 0.32
CC(C)C[C@H](NC(=O)CNC(=O)c1cc(Cl)ccc1Cl)B1OC(=O)C(CC(=O)O)(CC(=O)O)O1 [MLN9708]	1.35	1.13	1.2	1.17	1	0.392	0.0117	0.00236	0.000667	1.05	1.02	1.01	1.02	1	0.0169	0.00139	0.00101	0.000797	103 ± 2.1	104 ± 2.3	107 ± 4.3	21.9 ± 4.2	3.28 ± 0.3	2.38 ± 0.081	99.131 ± 0.04	98.8 ± 0.59	102 ± 2.2	4.63 ± 0.36	1.63 ± 0.029	0.886 ± 0.074
O=c1cc(N2CCOCC2)oc2c(-c3cccc4c3sc3ccccc34)cccc12 [NU7441]	1.29	0.918	0.935	0.718	0.623	0.724	0.674	0.227	0.00895	1.06	0.893	1.08	0.961	0.89	0.85	0.236	0.00964	0.00523	61.9 ± 2.2	57.3 ± 5.1	78.8 ± 9.5	78.5 ± 3	88.7 ± 5.2	41.2 ± 0.43	105 ± 2.5	109 ± 1.9	111 ± 1.2	102.6 ± 0.65	101 ± 2.8	56.7 ± 1.8
Nc1ncnc2c1c(-c1cccc(OCc3ccccc3)c1)cn2C1CC(CN2CCCC2)C1 (stereo not given) [NVP-ADW742]	1.03	1.02	1.03	1.04	1.05	0.948	0.817	0.724	0.0714	1.02	1.04	1.13	1.14	1.07	1.09	0.995	0.273	0.0444	74.8 ± 0.9	61.6 ± 3.1	69.9 ± 9.3	66.3 ± 5.1	77.3 ± 6	70.1 ± 4.5	98.4 ± 1	96 ± 1.5	94.3 ± 2.1	96.7 ± 2.4	92.3 ± 6	59.3 ± 0.83
Cc1ccc(C(=O)Nc2cccc(C(F)(F)F)c2)cc1Nc1nc(-c2cccnc2)nc2c1cnn2C [NVP-BHG712]	1.3	1.15	1.19	1.1	1.24	1.37	0.67	0.135	0.011	1.21	1.1	1.09	1.12	1.12	1.14	0.95	0.301	0.0076	108 ± 1.1	108 ± 0.36	107 ± 2.5	102 ± 2.6	99.4 ± 2	33.9 ± 4	105 ± 1.7	104.74 ± 0.059	102 ± 1.1	95.4 ± 2.5	78.2 ± 1.3	17.4 ± 1.2
